According to patent US20140038883A1, “NOVEL AZACOUMARIN DERIVATIVES HAVING MDR PUMP INHIBITING ACTIVITY” (UNIVERSITE CLAUDE BERNARD LYON 1, priority 2011, published 2014):
One block for each compound: values may come before it.

Experiments:
[1] = tested on: S. aureus 1199b overexpressing NorA; assay: Supplemental EPI tests: potentiation of antibiotic MICs; type: cell-based, Staphylococcus aureus; conditions: for potentiating activity in the presence of tetracycline and of erythromycin: 1199b strain
Description: (§1) The molecules of which the EPI effect was evaluated are: I.1 (24 μmol/l), I.6 (16 μmol/l) and I.14 (31 μmol/l).
(§2) The antibiotics with which these molecules were combined are: ciprofloxacin and norfloxacin; tetracycline; oxacillin; erythromycin and vancomycin.
(§3) The bacterial strains tested are S. aureusATCC 29213; S. aureus 1199b overexpressing NorA and also S. aureus 1199, the strain from which it is derived; S. aureus K1712 not expressing NorA and also S. aureus 8325.4 (the strain from which it is derived).
(§4) The methodology used is based on the MIC technique described previously.

[2] = tested on: S. aureus ATCC 29213, 1199b, 1199, K1712, 8325.4; assay: as above; type: cell-based, Staphylococcus aureus
Description: as §1, §2, §3, §4

[3] = tested on: S. aureus K1712 not expressing NorA; assay: as above; type: cell-based, Staphylococcus aureus; conditions: strain not expressing NorA
Description: as §1, §2, §3, §4

S. aureus ATCC 29213 [4] = assay: Antibiotic activity of the compounds alone (MIC technique); type: cell-based, Staphylococcus aureus; conditions: compound alone, 18-24 h at 37° C., MH II medium
Description: All the compounds according to the invention are solubilized in dimethylsufoxide (DMSO). For each compound, the highest concentration usable during the experiments is determined by taking into account the toxicity of the solvent (final concentration of DMSO in contact with the bacteria of less than 3%) and also the capacity of the compound to solubilize in Mueller Hinton II (MH II) media. This is because some compounds precipitate during dilutions of solutions based on DMSO in MH II media. The strain for screening the compounds is a strain of Staphylococcus aureus from the American Type Culture Collection or ATCC, called S. aureus ATCC 29213. The antibiotic activity of a molecule is evaluated using the MIC technique. The MIC of a molecule is determined in a 96-well microplate, in MH II liquid medium according to the protocol of the CASFM and of the CLSI. A dilution range of the molecule is prepared beforehand in MH II medium. In each well, 100 μl of a bacterial suspension of SI aureus ATCC 29213 (10^6 CFU/ml), 50 μl of the dilution range of the compound tested and 50 μl of MH II are mixed. After 18-24 h of incubation at 37° C., the molecules having shown an inhibition of bacterial growth are recorded as having an antibiotic activity. The lowest concentration of compound for which no bacterial growth is observed is the MIC (lowest concentration inhibiting the growth of the bacteria).

[5] = tested on: Fifty-six strains belonging to 19 genera; assay: Spectrum of activity: potentiating effect of compound I.12 on ciprofloxacin (MIC method); type: cell-based
Description: (§5) The antibiotic used is ciprofloxacin with the same dilution as in section B.1. The compound I.12 is also used under the same conditions as in section B.1.
(§6) Fifty-six strains belonging to 19 genera were used (TABLE 6).
(§7) Nine of these strains are ATCC strains and 47 are of clinical origins and come from the Centre de Biologie Est [Eastern Biological Center] in Bron. Eighteen staphylococcal strains are tested: 1 strain of S. epidermidis, 2 strains of S. aureus, 10 MRSA (methicillin-resistant S. aureus) and 5 VISA (vancomycin intermediate sensitivity S. aureus). Sixteen enterococcal strains are also tested, i.e. 9 E. faecium and 7 E. faecalis. The latter 2 species grouped together 2 vancomycin-sensitive strains (1 per species), and 14 resistant strains (VRE, respectively 8 E. faecium and 6 E. faecalis).
(§8) This potentiating effect is evaluated as previously. However, the growth of certain microorganisms (Streptococcus pneumoniae, S. agalactiae, S. pyogenes, Corynebacterium amycolatum and Listeria monocytogenes) in liquid medium requires defibrinated horse blood lysed in 50% of sterile osmosed water via a succession of 7 freezings (−20° C.)/thawing (ambient temperature). The 50% blood is then centrifuged at ambient temperature at 12 000 rpm for 20 min. The supernatant is introduced into sterile, additive-free MH II in an amount of 5% by volume.

[6] = tested on: Staphylococcus aureus (MSSA, MRSA, VISA strains); assay: Spectrum of activity: I.12 + ciprofloxacin, S. aureus strains; type: cell-based; conditions: for Number of sensitive strains / Percentage of sensitive strains: ciprofloxacin + I.12
Description: as §5, §6, §7, §8

[7] = tested on: Staphylococcus epidermidis; assay: Spectrum of activity: I.12 + ciprofloxacin, S. epidermidis; type: cell-based
Description: as §5, §6, §7, §8

[8] = tested on: Enterococcus faecalis (VSE, VRE strains); assay: Spectrum of activity: I.12 + ciprofloxacin, E. faecalis strains; type: cell-based; conditions: for Number of sensitive strains / Percentage of sensitive strains: ciprofloxacin + I.12
Description: as §5, §6, §7, §8

[9] = tested on: Enterococcus faecium (VSE, VRE strains); assay: Spectrum of activity: I.12 + ciprofloxacin, E. faecium strains; type: cell-based; conditions: for Number of sensitive strains / Percentage of sensitive strains: ciprofloxacin + I.12
Description: as §5, §6, §7, §8

S. aureus ATCC 29213 [10] = assay: Chessboard method, I.12 combined with antibiotics (FIC); type: cell-based, Staphylococcus aureus; conditions: I.12 and ciprofloxacin; FIC≦0.5 = synergy
Description: The antibiotics used are erythromycin, ciprofloxacin, vancomycin, tetracycline and oxacillin.
The sensitivity of S. aureus ATCC 29213 to the combination of the antibiotic molecules ciprofloxacin and the compound I.12 and the effect of each of the two molecules on the activity of the other are determined using the chessboard method. This method is carried out in a round-bottomed 96-well plate (12 columns by 8 rows). Various concentrations of ciprofloxacin and of compound I.12 are obtained by a dilution of their stock solutions in MH II broth. Fifty microliters of the dilution range of the compound I.12 are deposited in each well of columns 1 to 10, each row corresponding to a dilution of this compound. Fifty microliters of the dilution range of ciprofloxacin are deposited in the wells of columns 2 to 10, each column corresponding to a dilution. This same dilution range of ciprofloxacin is also prepared in column 11. Fifty microliters of MH II broth are deposited in the wells of columns 1 and 11. Finally, 100 μl of bacterial suspension at 10^6 CFU (Colony-Forming Units)/ml are introduced in each well of columns 1 to 10 (final concentration of bacteria: 5×10^5 CFU/ml).
The plate is read visually. […] The fractional inhibitory concentration (FIC) is calculated by adding the FIC of the compound I.12 (FICI.12) and the FIC of ciprofloxacin (FICcipro) according to the following formulae: […]

MRSA (strain ST07 1012) = assay: Chessboard method, I.12 combined with ciprofloxacin (FIC); type: cell-based, Staphylococcus aureus; conditions: I.12 and ciprofloxacin; FIC≦0.5 = synergy
VISA (strain V4) = assay: as above; type: cell-based, Staphylococcus aureus; conditions: I.12 and ciprofloxacin; FIC≦0.5 = synergy
[11] = tested on: S. aureus K 1712 (strain without NorA pump); assay: Chessboard method, I.12 combined with antibiotics; type: cell-based, Staphylococcus aureus; conditions: each ATB
[12] = tested on: S. aureus 1199B (strain overexpressing NorA); assay: Chessboard method, I.12 combined with antibiotics; type: cell-based, Staphylococcus aureus
S. aureus ATCC 29213 [13] = assay: Time kill curve method, I.12/ciprofloxacin combination; type: cell-based, Staphylococcus aureus; conditions: ciprofloxacin (0.5 mg/ml and 0.125 mg/m)/I.12 (31 μM); mean of two experiments
Description: The time kill curve is performed in 6-well plates. Each well contains 5 ml of MH II broth inoculated with bacteria in the exponential growth phase (final concentrations at 10^6 CFU/ml). The various bacterial growth conditions tested are: • Well 1: 0.5 mg/ml of ciprofloxacin +31 μM of I.12. • Well 2: 0.125 mg/ml of ciprofloxacin +31 μM of I.12. • Well 3: 0.5 mg/ml of ciprofloxacin. • Well 4: 0.125 mg/ml of ciprofloxacin. • Well 5: 31 μM of I.12. • Well 6: No molecule.
The cultures are incubated at 37° C. with shaking at 400 rpm. Samples are taken every hour for the first 6 hours, and at 22 hours. The live bacteria are counted by culturing on a dish after dilutions of the cultures.

SMILES: COc1cc(OC)c2c(C)c(-c3c[nH]c4ccccc34)c(=O)[nH]c2c1 [compound I.6, 3-(1H-indol-3-yl)-5,7-dimethoxy-4-methylquinolin-2(1H)-one]
- potentiating activity in the presence of tetracycline and of erythromycin [1]: does not exist
- potentiating activity combined with one of the two fluoroquinolones ([1]; norfloxacin or ciprofloxacin, strain overexpressing NorA): particularly notable
- potentiating activity coupled to non-fluoroquinolone antibiotics ([2]; tetracycline, oxacillin, erythromycin, vancomycin): not very effective
- potentiating activity of the combinations [3]: zero

- antibiotic activity alone, concentration (MIC) (S. aureus ATCC 29213 [4]): 155 µM
SMILES: Cc1c(-c2ccccc2)c(=O)[nH]c2cc(O)cc(O)c12 [compound I.13, 5,7-dihydroxy-4-methyl-3-phenylquinolin-2(1H)-one]

- melting point: 189 to 190 °C
SMILES: COc1cc(O)c2c3c(c(=O)[nH]c2c1)CCC3 [compound I.15, 2,3-dihydro-9-hydroxy-7-methoxy-1H-cyclopenta[c]quinolin-4(5H)-one]

SMILES: COc1cc(O)c2c(C)c(Cc3ccccc3)c(=O)[nH]c2c1 [compound I.14, 3-benzyl-5-hydroxy-7-methoxy-4-methylquinolin-2(1H)-one]
- potentiating activity in the presence of tetracycline and of erythromycin [1]: weak activity
- improvement in the MICs (fold) in the presence of norfloxacin and of ciprofloxacin ([2]; I.1 24 μmol/l, I.6 16 μmol/l, I.14 31 μmol/l): results are identical
- melting point: > 278 °C (dec.)

SMILES: COc1cc(O)c2c(C)c(-c3ccccc3)c(=O)[nH]c2c1 [compound I.12, 5-hydroxy-7-methoxy-4-methyl-3-phenylquinolin-2(1H)-one]
- number of strains more sensitive to ciprofloxacin when the compound is combined ([5]; among the 56 bacterial strains tested): 28
- factor by which the ciprofloxacin MICs are divided in the presence of the compound ([5]; each of the 28 sensitive strains, except one): 16
- factor by which the ciprofloxacin MIC is divided in the presence of the compound ([5]; the one exception among the 28 sensitive strains): ≥ 4
- Number of sensitive strains ([6]; MRSA, 10 strains tested): 10
- Percentage of sensitive strains ([6]; MRSA): 100%
- Number of sensitive strains ([6]; MSSA, 2 strains tested): 2
- Percentage of sensitive strains ([6]; MSSA): 100%
- sensitive strains / strains tested, combination with ciprofloxacin ([6]; S. aureus sensitive to conventional antibiotics): 2/2
- sensitive strains / strains tested, combination with ciprofloxacin ([6]; S. aureus with reduced sensitivity to vancomycin (VISA)): 5/5
- Number of sensitive strains ([6]; VISA, 5 strains tested): 5
- Percentage of sensitive strains ([6]; VISA): 100%
- sensitive strains / strains tested, combination with ciprofloxacin ([6]; methicillin-resistant S. aureus (MRSA)): 10/10
- sensitive strains / strains tested, combination with ciprofloxacin ([7]; S. epidermidis): 1/1
- Number of sensitive strains ([7]; S. epidermidis sensitive strain, 1 tested, ciprofloxacin + I.12): 1
- Percentage of sensitive strains ([7]; S. epidermidis sensitive strain, ciprofloxacin + I.12): 100%
- sensitive strains / strains tested, combination with ciprofloxacin ([8]; E. faecalis (4 are VREs)): 5/7
- Number of sensitive strains ([8]; E. faecalis VRE, 6 tested): 4
- Percentage of sensitive strains ([8]; E. faecalis VRE): 67%
- Number of sensitive strains ([8]; E. faecalis VSE, 1 tested): 1
- Percentage of sensitive strains ([8]; E. faecalis VSE): 100%
- sensitive strains / strains tested, combination with ciprofloxacin ([9]; E. faecium (the 5 being VREs)): 5/9
- Number of sensitive strains ([9]; E. faecium VRE, 8 tested): 5
- Percentage of sensitive strains ([9]; E. faecium VRE): 62.5%
- Number of sensitive strains ([9]; E. faecium VSE, 1 tested): 0
- Percentage of sensitive strains ([9]; E. faecium VSE): 0
- factor by which the ciprofloxacin MIC is divided in the presence of the compound ([9]; two E. faecium VRE strains not listed in the 28, weakly sensitive): ≥ 2
- FIC (fractional inhibitory concentration) (S. aureus ATCC 29213 [10]): ≤ 0.5
- FIC (fractional inhibitory concentration) (MRSA (strain ST07 1012)): ≤ 0.5
- FIC (fractional inhibitory concentration) (VISA (strain V4)): ≤ 0.5
- interaction with antibiotics (chessboard) [11]: absence of interaction
- interaction with antibiotics (chessboard) [12]: highly synergistic combination
- reduction of CFU/ml of the combination versus the most active molecule alone (synergistic effect) (S. aureus ATCC 29213 [13]): ≥ 2 log10

SMILES: COc1cc(OC)c2c(C)c(-c3cccc(Cl)c3)c(=O)[nH]c2c1 [compound I.1, 3-(3-chlorophenyl)-5,7-dimethoxy-4-methylquinolin-2(1H)-one]
- EPI effects of the compound in combination with antibiotics ([2]; I.1 at 24 μmol/l): minor
